The values that follow come from US6592899B2, “PLA/PLGA oligomers combined with block copolymers for enhancing solubility of a drug in water” (Macromed Incorporated, priority 2001, dated 2003).

Data set [1] is described as follows: Amphotericin B solubility in triblock copolymer solution with or without PLA oligomers (dialysis preparation). It is filed as physicochemical. As for the experimental part: The mixture was added to dialysis tubing with a 3500 Dalton molecular weight cutoff and dialyzed against reverse osmosis deionized water (pH=2) overnight. The dialysate was then exchanged for reverse osmosis deionized water and dialyzed overnight. The reported solubility of amphotericin B in water is 3 μg/mL. […] The maximum concentration of amphotericin B in the mixture of PLA oligomers and the triblock copolymer was improved greater then 10 fold than that in the triblock copolymer alone.

For data set [2] the following is noted: cited from earlier work.
Data set [3] is described as follows: Solution stability of paclitaxel in PLGA-PEG-PLGA triblock copolymer with or without PLA oligomer. It is filed as physicochemical. As to conditions: 40 mg paclitaxel, 2 ml water, 0.2 μm filtered. The text has this: The solution stability enhancing properties of PLA oligomers are illustrated in this example. […] The solution was then filtered through a 0.2 μm filter. […] A precipitate appeared within 1 day with the PLGA-PEG-PLGA triblock copolymer system alone, while the solution containing the PLA oligomer maintained paclitaxel in solution and remained clear for more than 3 days.

Data set [4] is described as follows: Solution stability of paclitaxel in Me-PEG-PLGA diblock copolymer with or without PLA oligomer. It is filed as physicochemical. The conditions noted are these: 40 mg paclitaxel, 2 mL water. As for the experimental part: The PLA oligomers prepared in Example 4 (75 mg) were added to 600 mg of Me-PEG-PLGA diblock copolymer prepared in Example 9, 40 mg of paclitaxel, and 2 mL of reverse osmosis deionized water. […] The solution was then filtered through a 0.2 μm filter. […] Precipitate began to appear within 1 day from the Me-PEG-PLGA diblock copolymer system alone, while the solution containing the PLA oligomer maintained paclitaxel in solution and remained clear for more than 2 days.

Values after ≈ are worked out from the molar mass of the structure shown.

In general, solubility refers to the dissolved amount per volume that the medium holds. Read a low solubility as a poorly soluble substance. For the compound `C[C@@H]1[C@H](O)[C@@H](C)/C=C/C=C/C=C/C=C/C=C/C=C/C=C/[C@H](O[C@@H]2O[C@H](C)[C@@H](O)[C@H](N)[C@@H]2O)C[C@@H]2O[C@](O)(C[C@@H](O)C[C@@H](O)[C@H](O)CC[C@@H](O)C[C@@H](O)CC(=O)O[C@H]1C)C[C@H](O)[C@H]2C(=O)O` [amphotericin B], the “improvement of maximum concentration over the triblock copolymer alone” value in data set [1] (mixture of PLA oligomers and the triblock copolymer) is recorded as over 10 fold. The compound further returned a solubility in data set [1] (triblock copolymer solution of Example 1 (entry 1), without PLA oligomers) of 150 µg/mL (≈ 162 µM). Further, the “reported solubility in water” value in data set [2] is 3 µg/mL.

Take `CC(=O)O[C@H]1C(=O)[C@@]2(C)[C@H]([C@H](OC(=O)c3ccccc3)[C@]3(O)C[C@H](OC(=O)[C@H](O)[C@@H](NC(=O)c4ccccc4)c4ccccc4)C(C)=C1C3(C)C)[C@]1(OC(C)=O)CO[C@@H]1C[C@@H]2O` [paclitaxel]: the “time paclitaxel maintained in solution and remained clear” value is “more than 3 days” in data set [3] (PLGA-PEG-PLGA triblock copolymer (600 mg) with PLA oligomer (75 mg)) and “more than 2 days” in data set [4] (Me-PEG-PLGA diblock copolymer (600 mg) with PLA oligomer (75 mg)). Besides, in data set [3] (PLGA-PEG-PLGA triblock copolymer system alone (600 mg)), the “time until a precipitate appeared” value was at most 1 days. The “time until precipitate began to appear” value in data set [4] (Me-PEG-PLGA diblock copolymer system alone (600 mg)) was at most 1 days.
